The nature of series [1]: Animal biodistribution (in vivo, i.v. injection). Particulars: rats; for Blood, % injected dose/organ: blood taken as 5.8% of body weight; for Muscle, % injected dose/organ: muscle taken as 43% of body weight.
Protocol: (§1) 0.1 ml Tc^99m prep was injected i.v. into a lateral tail vein of 6 anaesthetised rats.
(§2) At 2 minutes and 60 minutes post injection, 3 rats were sacrificed by decapitation, bled from the neck and dissected. The following organs were removed at dissection: kidney, bladder(+urine), lung, liver, spleen, stomach, small intestine, large intestine, brain (weighed), heart (weighed), thyroid, and samples of blood (weighed) and muscle (weighed, the residual carcass and the tail (injection site). Subsequently samples were counted in an automatic twin crystal gamma counter.
(§3) Percentage biodistribution of injected material was calculated (after correction for background) for all organs using the formula: [formula]
(§4) Since only samples of muscle and blood were taken, the percentage in these tissues was calculated assuming blood and muscle to represent 5.8 and 43% of total animal weight respectively using the formula: [formula] where CF= 0.058 for blood
Series [2] is described as follows: Electrophoresis (behaviour of complex under electrophoretic conditions). It counts as physicochemical. Particulars: Tc-99 and Tc-99m. As for the experimental part: A 0.1 g Agarose/10 cm^3 50 mM Phosphate buffer pH 7.4 gel was run at an applied potential of 300 VV for approximately 35 mins, using bromophenol blue indicator (this indicator moves towards the […]). The resulting distribution of activity was determined using suitable equipment.

For series [3] the following is noted: rat, in vivo, iv.
Protocol: as §1, §2, §3, §4

Each structure is given as a SMILES string. Like-named read-outs stand apart in the source and are kept apart here.

Turning to `CC(=O)C=C(C)[O][99Tc-]([Cl])([Cl])([Cl])[N]=O` [[^99 Tc(NO)Cl3 (acac)]^-, trichloro(pentan-2,4-dionato) nitrosyltechnetium(II) anion], in series [1] (2 min p.i.), the “Brain, % injected dose/organ” value is given as 0.10 % injected dose/organ; the “Heart, % injected dose/organ” value worked out at 0.56 % injected dose/organ; the “Heart/Blood Counts/Gram ratio” value is recorded as 2.2; the “Heart/Liver Counts/Gram ratio” value is on record as 2.30. In series [1] (2 min p.i.), the “Heart/Lung Counts/Gram ratio” value is given as 1.12; the “Heart/Muscle Counts/Gram ratio” value was found to be 2.19; the “Kidney + Urine, % injected dose/organ” value is listed as 1.61 % injected dose/organ; the “Liver + GI, % injected dose/organ” value was 0.00 % injected dose/organ. Also, in series [1] (2 min p.i.), the “Liver, % injected dose/organ” value was 3.12 % injected dose/organ; the “Lung, % injected dose/organ” value amounted to 0.73 % injected dose/organ; the “Blood, % injected dose/organ” value is listed as 3.56 % injected dose/organ; the “Muscle, % injected dose/organ” value is given as 27.9 % injected dose/organ. In series [1] (60 min p.i.), the “Brain, % injected dose/organ” value was determined as 0.05 % injected dose/organ; the “Heart, % injected dose/organ” value is 0.23 % injected dose/organ; the “Heart/Blood Counts/Gram ratio” value turned out to be 1.76; the “Heart/Liver Counts/Gram ratio” value stood at 0.39. Further, in series [1] (60 min p.i.), the “Heart/Lung Counts/Gram ratio” value was 0.74; the “Heart/Muscle Counts/Gram ratio” value is on record as 1.84; the “Kidney + Urine, % injected dose/organ” value was found to be 13.55 % injected dose/organ; the “Liver + GI, % injected dose/organ” value is given as 0.00 % injected dose/organ. Further, in series [1] (60 min p.i.), the “Liver, % injected dose/organ” value is given as 8.27 % injected dose/organ; the “Lung, % injected dose/organ” value amounted to 0.53 % injected dose/organ; the “Blood, % injected dose/organ” value came to 2.00 % injected dose/organ; the “Muscle, % injected dose/organ” value is 14.37 % injected dose/organ. In addition, the “Stability under electrophoretic conditions” value in series [2] is “decomposed under electrophoretic conditions”.

On to `CCCP(C)CCP(C)CCC.CCCP(C)CC[P](C)(CCC)[99Tc+]([Cl])[N]=O` (centres unmarked) [[^99m Tc(NO) × (PMPE)2]^+], for which the “Heart/Lung Counts/Gram ratio” value in series [1] (2 min p.i.) was 1.0. In addition, in series [3] (2 min), the “Blood, % injected dose/organ” value stood at 3.27 % injected dose/organ; the “Heart, % injected dose/organ” value amounted to 0.92 % injected dose/organ; the “Heart/Blood Counts/Gram ratio” value amounted to 4.15; the “Heart/Liver Counts/Gram ratio” value was 0.44. Also, in series [3] (2 min), the “Heart/Muscle Counts/Gram ratio” value is recorded as 4.78; the “Kidney + Urine, % injected dose/organ” value worked out at 13.3 % injected dose/organ; the “Liver + GI, % injected dose/organ” value came out at 44.7 % injected dose/organ; the “Liver, % injected dose/organ” value worked out at 27.4 % injected dose/organ. Further, in series [3] (2 min), the “Lung, % injected dose/organ” value worked out at 1.40 % injected dose/organ and the “Muscle, % injected dose/organ” value stood at 21.1 % injected dose/organ. For the same molecule, in series [3] (60 min), the “Blood, % injected dose/organ” value came out at 0.42 % injected dose/organ; the “Heart, % injected dose/organ” value came to 0.77 % injected dose/organ; the “Heart/Blood Counts/Gram ratio” value came out at 27.8; the “Heart/Liver Counts/Gram ratio” value came out at 1.65. Moreover, in series [3] (60 min), the “Heart/Lung Counts/Gram ratio” value is 2.3; the “Heart/Muscle Counts/Gram ratio” value is 5.01; the “Kidney + Urine, % injected dose/organ” value is listed as 15.2 % injected dose/organ; the “Liver + GI, % injected dose/organ” value is 53.6 % injected dose/organ. In series [3] (60 min), the “Liver, % injected dose/organ” value turned out to be 6.23 % injected dose/organ; the “Lung, % injected dose/organ” value came to 0.53 % injected dose/organ; the “Muscle, % injected dose/organ” value worked out at 17.5 % injected dose/organ.

For the origin of these results see patent US5081232A, “Complexes of TC99m radiopharmaceuticals” (priority 1987, dated 1992).
